Measurements reported in BigSolDB 2.1.

NC(=O)C[C@H](N)C(=O)O.O
solubility (mole fraction)
Settings | 278.15 K | 283.15 K | 288.15 K | 293.15 K | 298.15 K | 303.15 K | 308.15 K | 313.15 K | 318.15 K | 323.15 K
in acetonitrile | 5.98e-06 | 8.11e-06 | 1.09e-05 | 1.44e-05 | 1.89e-05 | 2.49e-05 | 3.2e-05 | 4.11e-05 | 5.24e-05 | 6.64e-05
in ethanol | 1.32e-05 | 1.77e-05 | 2.36e-05 | 3.11e-05 | 4.06e-05 | 5.25e-05 | 6.73e-05 | 8.57e-05 | 0.000108 | 0.000136
in ethyl acetate | 1.25e-05 | 1.73e-05 | 2.29e-05 | 2.99e-05 | 3.89e-05 | 5.01e-05 | 6.39e-05 | 8.21e-05 | 0.000102 | 0.000129
in isobutanol | 1.11e-05 | 1.49e-05 | 1.97e-05 | 2.59e-05 | 3.38e-05 | 4.36e-05 | 5.58e-05 | 6.98e-05 | 8.97e-05 | 0.000114
in isopropanol | 9.67e-06 | 1.26e-05 | 1.65e-05 | 2.22e-05 | 2.91e-05 | 3.81e-05 | 4.96e-05 | 6.19e-05 | 8.17e-05 | 0.000104
in methanol | 1.54e-05 | 2.04e-05 | 2.7e-05 | 3.52e-05 | 4.56e-05 | 5.86e-05 | 7.42e-05 | 9.4e-05 | 0.000118 | 0.000147
in methyl acetate | 1.66e-05 | 2.23e-05 | 2.91e-05 | 3.78e-05 | 4.89e-05 | 6.28e-05 | 7.98e-05 | 0.000101 | 0.000127 | 0.000158
in n-butanol | 1.07e-05 | 1.43e-05 | 1.9e-05 | 2.5e-05 | 3.26e-05 | 4.2e-05 | 5.38e-05 | 6.84e-05 | 8.62e-05 | 0.000105
in n-butyl acetate | 1.57e-05 | 2.09e-05 | 2.7e-05 | 3.49e-05 | 4.54e-05 | 5.76e-05 | 7.24e-05 | 9.16e-05 | 0.000114 | 0.000142
in n-propanol | 1.07e-05 | 1.45e-05 | 1.94e-05 | 2.57e-05 | 3.37e-05 | 4.4e-05 | 5.68e-05 | 7.28e-05 | 9.28e-05 | 0.000117
in n-propyl acetate | 1.63e-05 | 2.14e-05 | 2.81e-05 | 3.66e-05 | 4.76e-05 | 6.11e-05 | 7.78e-05 | 9.84e-05 | 0.000121 | 0.000154
in water | 0.0014 | 0.00178 | 0.00227 | 0.0028 | 0.00344 | 0.00422 | 0.00518 | 0.00627 | 0.0076 | 0.00914
